Results published in EP1137645B1, “ALPHA-METHYLBENZYL-CONTAINING THIOUREA INHIBITORS OF HERPES VIRUSES CONTAINING A […] GROUP” (Wyeth, priority 1998, dated 2000).
Converted amounts (≈) assume the structure as drawn. Read-outs that look alike come from different tables or passages of the source.

Key:
[1] = tested on: HCMV recombinant mutant virus whose genome contains the prokaryotic beta-glucuronidase gene; test: microbe, parasite or virus in culture; format: cell-based, human cytomegalovirus; conditions: for IC50: Human betaherpesvirus 5, Fibroblast
Outline: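 Human foreskin fibroblasts infected with HCMV recombinant carrying beta-glucuronidase under a viral promoter (e.g. RV145) in presence of compound. At 96 h post-infection, lysates assayed for beta-glucuronidase by colorimetric or fluorogenic substrate as replication readout; IC50 estimated from varying compound amounts.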

VZV strain Ellen = test: VZV antiviral (ELISA) assay; format: cell-based
Outline: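 HFF cells infected with VZV Ellen at multiplicity below 0.1 overnight, then mixed infected/uninfected cells seeded with compound in DMEM/2% FBS and incubated three days at 37°C, 5% CO2.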

HSV- I = test: HSV antiviral (ELISA) assay; format: cell-based; conditions: read-out: IC50 (ug/ml) HSV
Outline: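 Vero cells in DMEM with 2% FBS treated with compound 30 min before HSV-1 infection (MOI 0.006), then incubated ~24 h at 37°C. Viral replication measured by ELISA against glycoprotein D with β-galactosidase-linked secondary and fluorogenic substrate (ex 365/em 450 nm); IC50 relative to untreated fluorescence.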

[2] = read-out: IC50 ug/ml HCMV, HCMV, human foreskin fibroblasts
[3] = Human alphaherpesvirus 3, HFF, read-out: % inhibition 10 ug/ml VZV
[4] = Human alphaherpesvirus 3, HFF, read-out: IC50 (ug/ml) VZV
[5] = Human alphaherpesvirus 3, read-out: % inhibition 10 ug/ml VZV, 10 ug/ml, VZV strain Ellen, HFF cells, ELISA
[6] = Human alphaherpesvirus 3, VZV strain Ellen, HFF cells, ELISA, read-out: IC50 (ug/ml) VZV
[7] = Human alphaherpesvirus 3, HFF, read-out: IC50 (ug/ml) VZV, VZV strain Ellen, HFF cells, ELISA

SMILES	IC50 [1, 2] [µg/mL]	inhibition at 10 µg/mL (VZV strain Ellen; [3]) [%]	IC50 (VZV strain Ellen; [4]) [µg/mL]	IC50 (HSV- I; HSV- I, Vero cells, ELISA) [µg/mL]	IC50 ([1]; read-out: IC50 ug/ml HCMV) [µg/mL]	inhibition at 10 µg/mL (VZV strain Ellen; [5]) [%]	IC50 (VZV strain Ellen; [6]) [µg/mL]	IC50 (VZV strain Ellen; [7]) [µg/mL]	IC50 (HSV- I; Vero) [µg/mL]	IC50 ug/ml HCMV ([1]; HCMV, human foreskin fibroblasts) [µg/mL]
O=C(Nc1ccc(NC(=S)Nc2ccc(C(F)(F)F)c(Cl)c2)cc1)c1ccccc1F [Example 911, N-{4-[3-(3-Chloro-4-trifluoromethyl-phenyl)-thioureido]-phenyl}-2-fluoro-benzamide]	8 (≈ 17.1 µM)	38	> 10	> 10						
O=C(Nc1ccc(NC(=S)Nc2ccc(Cl)c(Cl)c2)cc1)c1ccccc1F [Example 912, N-{4-[3-(3,4-Dichloro-phenyl)-thioureido]-phenyl}-2-fluoro-benzamide]	> 10	21	> 10	8 (≈ 18.4 µM)						
O=C(Nc1ccc(NC(=S)Nc2ccc(Br)c(Cl)c2)cc1)c1ccccc1F [Example 915, N-{4-[3-(4-Bromo-3-chloro-phenyl)-thioureido]-phenyl}-2-fluoro-benzamide]				> 10	> 10	29	> 10			
O=C(Nc1ccc(NC(=S)Nc2ccc(I)c(Cl)c2)cc1)c1ccccc1F [Example 916, N-{4-[3-(3-Chloro-4-iodo-phenyl)-thioureido]-phenyl}-2-fluoro-benzamide]	3 (≈ 5.71 µM)	30	> 10	> 10						
O=C(Nc1ccc(NC(=S)Nc2ccc(F)c(Cl)c2)cc1)c1ccccc1F [Example 922, N-{4-[3-(3-Chloro-4-fluoro-phenyl)-thioureido]-phenyl}-2-fluoro-benzamide]	> 10	40	> 10	1 (≈ 2.39 µM)						
O=C(Nc1ccc(NC(=S)Nc2cc(Cl)ccc2Cl)cc1)c1ccccc1F [Example 931, N-{4-[3-(2,5-Dichloro-phenyl)-thioureido]-phenyl}-2-fluoro-benzamide]	> 10	51	> 10	4 (≈ 9.21 µM)						
O=C(Nc1ccc(NC(=S)Nc2cc(Cl)cc(Cl)c2)cc1)c1ccccc1F [Example 934, N-{4-[3-(3,5-Dichloro-phenyl)-thioureido]-phenyl}-2-fluoro-benzamide]	> 10	18	> 10	> 10						
O=C(Nc1ccc(NC(=S)Nc2cc(Cl)c(Cl)c(Cl)c2)cc1)c1ccccc1F [Example 937, 2-Fluoro-N-{4-[3-(3,4,5-trichloro-phenyl)-thioureido]-phenyl}-benzamide]				0.7 (≈ 1.49 µM)	2 (≈ 4.27 µM)	25	> 10			
O=C(Nc1ccc(NC(=S)Nc2ccccc2Cl)cc1)c1ccccc1F [Example 948, N-{4-[3-(2-Chloro-phenyl)-thioureido]-phenyl}-2-fluoro-benzamide]	4 (≈ 10 µM)	4	> 10	6 (≈ 15 µM)						
COC(=O)c1cccc(NC(=S)Nc2ccc(NC(=O)c3ccccc3F)cc2)c1 [Example 950, 3-{3-[4-(2-Fluoro-benzoylamino)-phenyl]-thioureido}-benzoic acid methyl ester]				8 (≈ 18.9 µM)	> 10		> 10			
NC(=O)c1cccc(NC(=S)Nc2ccc(NC(=O)c3ccccc3F)cc2)c1 [Example 952, N-[4-[[[[3-(Aminocarbonyl)phenyl]amino]thioxomethyl]amino]phenyl]-2-fluoro-benzamide]				> 10	> 10	22	> 10			
O=C(Nc1ccc(NC(=S)Nc2cccc([N+](=O)[O-])c2)cc1)c1ccccc1F [Example 959, 2-Fluoro-N-{4-[3-(3-nitro-phenyl)-thioureido]-phenyl}-benzamide]				0.7 (≈ 1.71 µM)	> 10	33	> 10			
O=C(Nc1ccc(NC(=S)Nc2cccc(OC(F)(F)F)c2)cc1)c1ccccc1F [Example 961, 2-Fluoro-N-{4-[3-(3-trifluoromethoxy-phenyl)-thioureido]-phenyl}-benzamide]				> 10	> 10	53	> 10			
O=C(Nc1ccc(NC(=S)Nc2cccc(F)c2)cc1)c1ccccc1F [Example 962, 2-Fluoro-N-{4-[3-(3-fluoro-phenyl)-thioureido]-phenyl}-benzamide]				> 10	> 10	10	> 10			
O=C(O)c1cccc(NC(=S)Nc2ccc(NC(=O)c3ccccc3F)cc2)c1 [Example 963, 3-{3-[4-(2-Fluoro-benzoylamino)-phenyl]-thioureido}-benzoic acid]				> 10	> 10	30	> 10			
O=C(O)c1cccc(NC(=S)Nc2ccc(NC(=O)c3ccco3)cc2)c1 [Example 964, 3-(3-{4-[(Furan-2-carbonyl)-amino]-phenyl}-thioureido)-benzoic acid]				> 10	> 10	0	> 10			
CC(=O)c1cccc(NC(=S)Nc2ccc(NC(=O)c3ccccc3F)cc2)c1 [Example 965, N-{4-[3-(3-Acetyl-phenyl)-thioureido]-pbenyl}-2-fluoro-benzamide]	> 10	12	> 10	5 (≈ 12.3 µM)						
CCCCNS(=O)(=O)c1cccc(NC(=S)Nc2ccc(NC(=O)c3ccccc3F)cc2)c1 [Example 966, N-{4-[3-(3-Butylsulfamoyl-phenyl)-thioureido]-phenyl}-2-fluoro-benzamide]	2.5 (≈ 4.99 µM)	95	8 (≈ 16 µM)	7 (≈ 14 µM)						
O=C(Nc1ccc(NC(=S)Nc2cccc(S(=O)(=O)CCO)c2)cc1)c1ccccc1F [Example 969, 2-Fluoro-N-(4-{3-[3-(2-hydroxy-ethanesulfonyl)-phenyl]-thioureido}-phenyl)-benzamide]	> 10	19	> 10	> 10						
CC(NC(=S)Nc1ccc(NC(=O)c2ccccc2C(F)(F)F)cc1)c1cc2ccccc2o1 (stereo not drawn) [Example 974, N-{4-[3-(1-Benzofuran-2-yl-ethyl)-thioureido]-phenyl}-2-trifluoromethyl-benzamide]	> 10							> 7.5	> 10	
CC(NC(=S)Nc1ccc(C(=O)Nc2ccc(F)cc2)cc1)c1ccc(F)cc1 (stereo not drawn) [Example 975, N-(4-Fluoro-phenyl)-4-{3-[1-(4-fluoro-phenyl)-ethyl]-thioureido}-benzamide]				> 10	> 10		0.87 (≈ 2.11 µM)			
CC(NC(=S)Nc1ccc(NC(=O)c2nccc3ccccc23)cc1)c1ccc(F)cc1 (stereo not drawn) [Example 976, Isoquinoline-1-carboxylic acid (4-{3-[1-(4-fluoro-phenyl)-ethyl]-thioureido}-phenyl)-amide]								0.04 (≈ 0.09 µM)	> 10	>10
CC(NC(=S)Nc1ccc(NC(=O)c2nccc3ccccc23)cc1)c1cc2ccccc2o1 (stereo not drawn) [Example 977, Isoquinoline-1-carboxylic acid {4-[3-(1-benzofuran-2-yl-ethyl)-thioureido]-phenyl}-amide]	> 10							0.05 (≈ 0.107 µM)	> 10	
CC(NC(=S)Nc1ccc(NC(=O)c2nccc3ccccc23)cc1)c1ccc(Br)cc1 (stereo not drawn) [Example 978, Isoquinoline-1-carboxylic acid (4-{3-[1-(4-bromo-phenyl)-ethyl]-thioureido}-phenyl)-amide]	7.8 (≈ 15.4 µM)							0.04 (≈ 0.0791 µM)	> 10	
CC(NC(=S)Nc1ccc(NC(=O)c2nccc3ccccc23)cc1)c1ccc(C#N)cc1 (stereo not drawn) [Example 979, Isoquinoline-1-carboxylic acid (4-{3-[1-(4-cyano-phenyl)-ethyl]-thioureido}-phenyl)-amide]	3.7 (≈ 8.19 µM)							0.13 (≈ 0.288 µM)	> 10	
